Data taken from PubChem BioAssay AID1596 (NINDS Approved Drug Screening Program, 2009).
Records with an inconclusive call do not appear.

System: PC12 polyQ huntingtin toxicity, LDH release
Test: mutant huntingtin toxicity rescue agents – PC12 cells, LDH release, LDH100, dose response (AID 1596)

| Compound | EC50 [µM] |
| --- | --- |
| C=C[C@H]1CN2CC[C@H]1C[C@@H]2[C@H](O)c1ccnc2ccccc12 | 60 |
| OCC(S)CS (stereo unspecified) | 10 |
| CCCCCc1cc(O)c2c(c1)OC(C)(C)C1CCC(C)=CC21 (stereo unspecified) | 60 |
| COC12CC[C@@]3(C[C@@H]1C(C)(O)C(C)(C)C)[C@H]1Cc4ccc(O)c5c4[C@@]3(CCN1CC1CC1)[C@H]2O5 (stereo partly specified) | 100 |
| CC(C)CC1C(=O)N2CCC[C@H]2C2(O)O[C@](NC(=O)C3C=C4c5cccc6[nH]c(Br)c(c56)C[C@H]4N(C)C3)(C(C)C)C(=O)N12 (stereo partly specified) | 30 |
| CC[C@H]1OC(=O)[C@H](C)[C@@H](O[C@H]2C[C@@](C)(OC)[C@@H](O)[C@H](C)O2)[C@H](C)[C@@H](O[C@@H]2O[C@H](C)C[C@H](N(C)C)[C@H]2O)[C@](C)(O)C[C@@H](C)CN(C)[C@H](C)[C@@H](O)[C@]1(C)O | 100 |
| C[C@@H]1C[C@@H]([C@H](O)CC2CC(=O)NC(=O)C2)C(=O)[C@@H](C)C1 | 0.2 |
| O=c1c2ccccc2[se]n1-c1ccccc1 | 6 |
| OCCN1CCN(CCCN2c3ccccc3Sc3ccc(Cl)cc32)CC1 | 100 |
| Nc1c(Br)cc(Br)cc1CNC1CCC(O)CC1 (stereo unspecified) | 100 |
| CC[n+]1c(-c2ccccc2)c2cc(N)ccc2c2ccc(N)cc21 | 4 |
| CN[C@@H]1[C@H](OC2[C@H](O[C@H]3[C@H](O)[C@@H](O)[C@H](N=C(N)N)[C@@H](O)[C@@H]3N=C(N)N)O[C@@H](C)[C@]2(O)C=O)O[C@@H](CO)[C@H](O)[C@H]1O (stereo partly specified) | 100 |
| COc1cc2ccc(=O)oc2cc1O | 30 |
| CN1CCc2cccc3c2C1Cc1ccc(O)c(O)c1-3 (stereo unspecified) | 10 |
| CCCCCCCCCCCCCCCCCC(=O)OC(CC(=O)O)C[N+](C)(C)C (stereo unspecified) | 100 |
| NC(=O)N/N=C/c1ccc([N+](=O)[O-])o1 | 20 |
| CC(C)(C)c1ccc(C(O)CCCN2CCC(C(O)(c3ccccc3)c3ccccc3)CC2)cc1 (stereo unspecified) | 8 |
| CC(=O)Oc1ccc(Cl)c2cccnc12 | 8 |
| O=C(Nc1ccc([N+](=O)[O-])cc1Cl)c1cc(Cl)ccc1O | 1 |
| CCOc1ccc2c(c1)C(C)=CC(C)(C)N2 | 8 |
| CCCCC(=O)OC1(C(=O)CO)C(C)CC2C3CCC4=CC(=O)C=CC4(C)[C@@]3(F)[C@@H](O)CC21C (stereo partly specified) | 60 |
| Cc1cc(C2CCCCC2)n(O)c(=O)c1 | 2.5 |

| Compound | EC50 [µM] |
| --- | --- |
| O=c1[nH]c2ccccc2n1C1CCN(CCCC(c2ccc(F)cc2)c2ccc(F)cc2)CC1 | 30 |
| C[C@@]1(C(=O)O)CC[C@]2(C)CC[C@]3(C)C4=CC=C5C=C(O)C(=O)C=C5[C@]4(C)CC[C@@]3(C)[C@@H]2C1 | 0.5 |
| CC(=O)OCC(=O)[C@@]1(O)[C@H](C)CC2C3CCC4=CC(=O)C=C[C@]4(C)[C@@]3(F)[C@@H](O)C[C@@]21C (stereo partly specified) | 0.8 |
| CN(C)CCOC(c1ccc(Cl)cc1)c1ccccn1 (stereo unspecified) | 1.5 |
| COc1ccc(-c2coc3cc(O)cc(O)c3c2=O)cc1 | 60 |
| C=C1C(=O)OC2C1CCC1(C)CCC=C(C)C21 (stereo unspecified) | 4 |
| Oc1cccc2cccnc12 | 20 |
| CNc1ccc2oc(C[C@@H]3OC4(CC[C@@H]3C)O[C@H](C(C)C(=O)c3ccc[nH]3)[C@H](C)C[C@H]4C)nc2c1C(=O)O (stereo partly specified) | 0.8 |
| CC(C)=CCCC1(C)C=Cc2c(O)c3c(c(CC=C(C)C)c2O1)OC12C(=CC4CC1C(C)(C)OC2(C/C=C(/C)C(=O)O)C4=O)C3=O (stereo unspecified) | 0.3 |
| CC(=O)Nc1ccc(S(=O)(=O)Nc2ccc([N+](=O)[O-])cc2)cc1 | 20 |
| O=NN(CCCl)C(=O)NCCCl | 4 |
| CC(NCCC(c1ccccc1)c1ccccc1)c1ccccc1 (stereo unspecified) | 10 |
| Nc1c2c(nc3ccccc13)CCCC2 | 60 |
| O=C(c1ccccc1)c1ccc2n1CCC2C(=O)O (stereo unspecified) | 8 |
| CO[C@@]12[C@@H]3NC3CN1C1=C(C(=O)C(N)=C(C)C1=O)[C@@H]2COC(N)=O (stereo partly specified) | 2.5 |
| O=C1C=CC(=C(c2ccc(O)cc2)c2ccc(O)cc2)C=C1 | 6 |
| CC(=O)c1c(O)c(C)c(O)c2c1OC1=CC(=O)C(C(C)=O)C(=O)C12C (stereo unspecified) | 60 |
| CC(NC(=O)C(NC(=O)OCc1ccccc1)C(C)C)C(=O)NC(CC(=O)O)C(=O)OC(F)F (stereo unspecified) | 20 |
| CN1CCc2c(c3ccccc3n2Cc2ccccc2)C1 | 30 |
| CCCCCc1cc(O)c2c(c1)OC(C)(C)c1ccc(C)cc1-2 | 40 |
| CO[C@@H]1C[C@@H](C[C@H]2CC[C@H](C)[C@H]([C@@H](C)C(=O)O)O2)O[C@]2(O[C@](C)([C@H]3CC[C@@](C)(C4O[C@@H](C5O[C@@](O)(CO)[C@H](C)C[C@@H]5C)C[C@@H]4C)O3)C[C@H]2C)[C@@H]1C (stereo partly specified) | 4 |
| CO/N=C(/C(=O)N[C@@H]1C(=O)N2C(C(=O)O)=C(COC(C)=O)CS[C@H]12)c1csc(N)n1 | 6 |

| Compound | EC50 [µM] |
| --- | --- |
| O=C(O)c1cc2cc(Cc3cccnc3)ccc2o1 | 20 |
| CCCCCc1cc(O)c2c(c1)OC(C)(C)C1CC=C(C)CC21 (stereo unspecified) | 40 |
| CN(C)c1ccc(C(=C2C=CC(=[N+](C)C)C=C2)c2ccc(N(C)C)cc2)cc1 | 0.2 |
| CC(C)=CCC1=C(O)c2ccccc2C(=O)C1=O | 100 |
| C[N+](C)(C)CCOC(N)=O | 1 |
| CCCCC[C@H](CC(=O)NO)C(=O)N[C@H](C(=O)N1CCC[C@H]1CO)C(C)C | 100 |
| CCN(CC)CCNc1ccc(CO)c2sc3ccccc3c(=O)c12 | 4 |
| CNC(=O)Oc1ccc2c(c1)[C@]1(C)CCN(C)[C@@H]1N2C | 100 |
| NCCCCNCCCN | 8 |
| CC(Cc1ccc(O)c(O)c1)C(C)Cc1ccc(O)c(O)c1 (stereo unspecified) | 8 |
| CC[C@@]1(O)C[C@H](OC2CC(N(C)C)C(OC3CC(O)C(OC4CCC(=O)C(C)O4)C(C)O3)C(C)O2)c2c(cc3c(c2O)C(=O)c2c(O)cccc2C3=O)[C@H]1C(=O)OC (stereo partly specified) | 4 |
| O=C1C=C2C(=CCOC2O)O1 (stereo unspecified) | 1 |
| O=c1cc(-c2ccc(O)cc2)oc2cc(O)cc(O)c12 | 40 |
| CC1(C)O[C@@H]2CC3C4C[C@H](F)C5=CC(=O)C=CC5(C)C4C(O)CC3(C)[C@]2(C(=O)CO)O1 (stereo partly specified) | 100 |
| NC(=NCc1ccccc1)NC(=O)c1nc(Cl)c(N)nc1N | 100 |
| C[C@H]1c2cccc(O)c2C(O)=C2C(=O)[C@]3(O)C(O)=C(C(N)=O)C(=O)[C@@H](N(C)C)[C@@H]3[C@@H](O)[C@@H]21 | 60 |
| CC(C)C(=O)Nc1ccc([N+](=O)[O-])c(C(F)(F)F)c1 | 4 |
| Oc1c(Cl)cc(Cl)cc1Sc1cc(Cl)cc(Cl)c1O | 20 |
| CN(C)[C@@H]1C(=O)C(C(N)=O)=C(O)[C@@]2(O)C(=O)C3=C(O)c4c(O)cccc4[C@@](C)(O)[C@H]3[C@H](O)[C@@H]12 | 100 |
| Cc1ccc(C(=O)C(C)CN2CCCCC2)cc1 (stereo unspecified) | 6 |
| Oc1c(Cl)cc(Cl)c(Cl)c1Cc1c(O)c(Cl)cc(Cl)c1Cl | 10 |
| COc1ccc(C[C@H](N)C(=O)N[C@@H]2[C@@H](CO)OC(n3cnc4c(N(C)C)ncnc43)[C@@H]2O)cc1 (stereo partly specified) | 10 |
